Laboratory results: US7928231B2, “Thienopyrazoles” (priority 2003, dated 2011)
Counter-ions that a name gives are not always drawn.

Columns and labels:
ITK = molecular target: T1, ITK (Homo sapiens, UniProt Q08881); assay: FlashPlate ITK protocol for ITK inhibition determination (ITK autophosphorylation, [γ-33P]ATP); type: biochemical; settings: MBP-tagged ITK, read-out: IC50 (enzyme inhibition)-
T1 construct: made in house
T1 sequence (Q08881 1-620): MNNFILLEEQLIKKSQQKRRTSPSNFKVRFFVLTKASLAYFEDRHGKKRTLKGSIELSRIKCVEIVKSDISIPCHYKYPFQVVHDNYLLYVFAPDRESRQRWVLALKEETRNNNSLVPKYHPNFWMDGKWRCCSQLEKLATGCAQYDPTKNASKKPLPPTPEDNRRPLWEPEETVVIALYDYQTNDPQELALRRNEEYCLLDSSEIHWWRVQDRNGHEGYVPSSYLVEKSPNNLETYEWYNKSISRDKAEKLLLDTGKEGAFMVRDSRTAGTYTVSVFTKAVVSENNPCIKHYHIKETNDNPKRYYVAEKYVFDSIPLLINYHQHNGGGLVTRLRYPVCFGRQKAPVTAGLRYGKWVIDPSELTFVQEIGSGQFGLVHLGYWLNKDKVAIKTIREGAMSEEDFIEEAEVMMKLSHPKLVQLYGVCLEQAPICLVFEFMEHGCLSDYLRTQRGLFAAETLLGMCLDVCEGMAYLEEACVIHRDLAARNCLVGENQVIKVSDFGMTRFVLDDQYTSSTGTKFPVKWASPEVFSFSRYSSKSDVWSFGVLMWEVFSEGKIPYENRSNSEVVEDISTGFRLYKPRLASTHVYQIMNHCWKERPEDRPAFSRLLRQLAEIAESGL
Procedure: ITK kinase is produced with an N-terminal Maltose Binding Protein tag (MW=˜114 kDa) using a Baculovirus expression system. The transfer of radioactive [γ-^33P] phosphate from [γ-^33P]ATP to ITK during the autophosphorylation of ITK is measured by scintillation counting. Streptavidin-coated FlashPlate Plus™ 384 well microplates (PerkinElmer Life Sciences) are designed for in-plate radiometric assays. The interior of each well is permanently coated with a thin layer of scintillant and a covalently bound layer of Streptavidin. ITK is incubated with [γ-^33P]ATP, biotinylated anti-MBP antibody (Cell Signaling Technology™) and test compounds in a 384-well Streptavidin-coated FlashPlate. The biotinylated anti-MBP binds tightly to the MBP-tagged ITK and cross-links it to Streptavidin on the plate surface. Unreacted ^33P-ATP is washed away and ^33P-phosphorylated ITK is measured when the [γ-^33P] incorporated into ITK stimulates the scintillant on the well to emit light. Radioactivity is assessed in a Packard
TopCount scintillation counter. Reagents are pipetted and dispensed using Beckman Biomek robotic equipment. Test compounds (2 μl per well) are pre-diluted from 1 mM 100% dimethyl sulfoxide solutions into water containing 30% dimethyl sulfoxide to produce dose response curves (10 point curves from (final) 30 μM to ˜1 nM); all tests are performed in duplicate. Background binding is assessed by substituting the enzyme inhibitor EDTA (25 mM final concentration) for test compound and maximal binding is assessed by inclusion of assay buffer instead of compound. Test compounds are added to the wells first (2 μl) followed by 10 μl enzyme solution in assay buffer. After 30 minutes pre-incubation, all other reagents are added in a 10 μl volume. The final reagent concentrations/well are as follows: 20 nM enzyme, 0.25 μCi [γ-^33P]ATP, assay buffer: 20 mM HEPES (pH 7.5), 0.15 M NaCl, 3 mM MgCl2, 3 mM MnCl2, 0.01% Triton X-100, 1 mM DTT, 5% glycerol and 0.01% γ-globulin. The plate is incubated at room temperature (RT) for 60 minutes for the kinase reaction. The reaction is stopped with 20 μl of 50 mM EDTA and the biotinylated anti-MBP is allowed to bind to the ITK and the Streptavidin for a further 60 minutes at RT. The unbound reagents are washed away with 2×100 μl phosphate-buffered saline (PBS). Radioactivity is measured for 45 sec/well.

[1] = system: IL-4 production from anti-CD3-stimulated murine splenocytes; assay: Anti-CD3 stimulated IL-4 assay from murine splenocytes; type: cell-based; settings: Mus musculus, Splenocyte, 72 h; BALB/c splenocytes, anti-CD3 stimulation, 3 days, IL-4 ELISA; read-out: IC50 IL-4 release inhibition- assay
Procedure: Anti-CD3 stimulated IL-4 Assay from Murine Splenocytes.
The tyrosine kinase ITK is involved in intracellular signaling events induced by several lymphocyte surface receptors. Since ITK deficient mice show an impairment in IL-4 production from T cells, a cell based assay for IL-4 production is used to measure the cellular potency of the ITK inhibitors of the present invention. In this assay the level of IL-4 is measured from the media of anti-CD3-stimulated murine splenocytes, and the ability of compounds of the present invention to inhibit this response is determined.
Spleens from the mouse strain BALB/c are isolated and used to prepare a suspension of mixed splenocytes. The spleens are homogenized with cell strainer (Falcon Cat#352350 and 5 ml syringe) in RPMI media. The mixture is spun down, and the pellets are suspended in 3 ml of Red Blood Cell Lysing Buffer (Sigma Cat#7757) and left for 10 minutes at room temperature. Cells are spun down again, and resuspended in RPMI with 10% FBS and passed through cell strainer. Total cell numbers are determined with hemocytometer.
Splenocytes are adjusted to a cell density of 10 million per ml of RPMI medium supplemented with 10% Foetal Bovine Serum (FBS) and 100 uls of the suspension plated out per well of a 96 round bottom plate. 50 uls of RPMI medium containing 4× the final concentration of test compound is added per well. For IC50 determination the following concentrations of compound are used. The starting concentration is 10 uM and 7 series of 1:3 dilutions are followed, and each compound concentration is set up in triplicate wells. 50 ul of 4× concentration are added. Cell cultures are then stimulated by addition of 50 ul of a 4 ug/ml solution of anti-CD3 antibody, (BD Bioscience Cat #553166) made up in RPMI plus 10% FBS media, and incubated in a 37° C. CO2 incubator for 3 days. At the end of the 3 day incubation, culture medium is taken and 50 uls used to assay IL-4 production by ELISA (IL-4 ELISA kit from R&D Systems, city. Cat #M4000 kit) according to the standard conditions described by the manufacturer.
IL-4 levels are plotted as a function of compound concentration. The concentration of compound resulting in 50% inhibition of IL-4, termed IC50(IL-4), is determined from the resulting curve.
Assay Procedure • 1. Add 100 ul of 1×10E7/ml mouse splenocytes in RPMI plus 10% FBS media to 96 well round bottom plates. • 2. Add 50 ul of Itk compounds (4× final concentration) in RPMI plus 10% FBS media • 3. Add 50 ul of 4 ug/ml anti-CD3 antibody in RPMI plus 10% FBS media • 4. Incubate at 37 c CO2 incubator for 3 days • 5. Transfer 150 ul culture media into fresh plate • 6. 50 ul of the media is subject to Elisa analysis (R & D Cat #M4000 kit) FlashPlate ITK Protocol for ITK Inhibition Determination

Row | IC50 (ITK) | IC50 [1] | melting point | Structure (SMILES)
1 | 0.00162 µM | 0.0113 µM |  | OC1CCCN(CCCOc2ccc3cc(-c4n[nH]c5ccsc45)[nH]c3c2)C1 (stereo not drawn) [Example 8, 1-{3-[2-(1H-Thieno[3,2-c]pyrazol-3-yl)-1H-indol-6-yloxy]-propyl}-piperidin-3-ol]
2 | 0.00522 µM |  |  | CCN(CC)CCCOc1ccc2cc(-c3n[nH]c4ccsc34)[nH]c2c1 [Example 12, Diethyl-{3-[2-(1H-thieno[3,2-c]pyrazol-3-yl)-1H-indol-6-yloxy]-propyl}-amine]
3 | 0.167 µM | 0.264 µM |  | c1ccc2[nH]c(-c3n[nH]c4ccsc34)nc2c1 [Example 1, 2-(1H-Thieno[3,2-c]pyrazol-3-yl)-1H-benzimidazole]
4 | 0.0409 µM |  |  | OC1CCN(CCCOc2ccc3[nH]c(-c4n[nH]c5ccsc45)cc3c2)CC1 [Example 16, 1-{3-[2-(1H-Thieno[3,2-c]pyrazol-3-yl)-1H-indol-5-yloxy]-propyl}-piperidin-4-ol]
5 | 0.0166 µM | 0.153 µM |  | c1cc2[nH]nc(-c3cc4cc(OCCCN5CCCCC5)ccc4[nH]3)c2s1 [Example 5, 5-(3-Piperidin-1-yl-propoxy)-2-(1H-thieno[3,2-c]pyrazol-3-yl)-indole]
6 | 0.00208 µM | 0.129 µM |  | OCC1CCCN(CCCOc2ccc3cc(-c4n[nH]c5ccsc45)[nH]c3c2)C1 (stereo not drawn) [Example 9, (1-{3-[2-(1H-Thieno[3,2-c]pyrazol-3-yl)-1H-indol-6-yloxy]-propyl}-piperidin-3-yl)-methanol]
7 | 0.0763 µM |  |  | OC1CCCN(CCCOc2ccc3[nH]c(-c4n[nH]c5ccsc45)cc3c2)C1 (stereo not drawn) [Example 17, 1-{3-[2-(1H-Thieno[3,2-c]pyrazol-3-yl)-1H-indol-5-yloxy]-propyl}-piperidin-3-ol]
8 |  |  | 156 to 158 °C | O=C(c1cc2[nH]nc(-c3cc4cc(CO)ccc4[nH]3)c2s1)N1CCN(c2ccc(F)cc2)CC1
9 | 0.0151 µM |  |  | OC1CCN(CCCOc2ccc3cc(-c4n[nH]c5ccsc45)[nH]c3c2)C1 (stereo not drawn) [Example 14, 1-{3-[2-(1H-Thieno[3,2-c]pyrazol-3-yl)-1H-indol-6-yloxyl]-propyl}-pyrrolidin-3-ol]
10 | 0.00365 µM | 0.18 µM |  | OC1CCN(CCCOc2ccc3cc(-c4n[nH]c5ccsc45)[nH]c3c2)CC1 [Example 6, 1-{3-[2-(1H-Thieno[3,2-c]pyrazol-3-yl)-1H-indol-6-yloxy]-propyl}-piperidin-4-ol]
11 | 0.0242 µM |  |  | CN(C)CCCOc1ccc2cc(-c3n[nH]c4ccsc34)[nH]c2c1 [Example 11, Dimethyl-{3-[2-(1H-thieno[3,2-c]pyrazol-3-yl)-1H-indol-6-yloxy]-propyl}-amine]
12 |  |  | 205 to 207 °C | COc1cccc(-c2cc3[nH]nc(-c4cc5ccc(OCCCN6CCC(O)CC6)cc5[nH]4)c3s2)c1
13 |  |  | 213 to 216 °C | OC1CCCN(CCCOc2ccc3cc(-c4n[nH]c5cc(-c6ccccc6)sc45)[nH]c3c2)C1 (stereo not drawn)
14 | 0.112 µM |  |  | c1ccc2c(c1)sc1c(-c3nc4ccc(OCCCN5CCCCC5)cc4[nH]3)n[nH]c12 [Example 20, 3-(5-(3-Piperidin-1-yl-propoxy)-1H-Benzoimidazol-2-yl)-1H-benzo[4,5]thieno[3,2-c]pyrazole hydrochloride]
15 | 0.0457 µM |  |  | OC1CCN(CCCOc2ccc3[nH]c(-c4n[nH]c5ccsc45)cc3c2)C1 (stereo not drawn) [Example 19, 1-{3-[2-(1H-Thieno[3,2-c]pyrazol-3-yl)-1H-indol-5-yloxy]-propyl}-pyrrolidin-3-ol]
16 | 0.00189 µM | 0.163 µM |  | c1cc2[nH]nc(-c3cc4ccc(OCCCN5CCCCC5)cc4[nH]3)c2s1 [Example 7, 6-(3-Piperidin-1-yl-propoxy)-2-(1H-thieno[3,2-c]pyrazol-3-yl)-1H-indole]
17 | 0.041 µM |  |  | OCC1CCCN(CCCOc2ccc3[nH]c(-c4n[nH]c5ccsc45)cc3c2)C1 (stereo not drawn) [Example 18, (1-{3-[2-(1H-Thieno[3,2-c]pyrazol-3-yl)-1H-indol-5-yloxy]-propyl}-piperidin-3-yl)-methanol]
18 |  |  | 239 to 242 °C | OC1CCN(CCCOc2ccc3cc(-c4n[nH]c5cc(-c6ccccc6)sc45)[nH]c3c2)CC1
19 | 0.157 µM | 0.164 µM |  | COc1ccc2nc(-c3n[nH]c4ccsc34)[nH]c2c1 [Example 2, 6-Methoxy-2-(1H-thieno[3,2-c]pyrazol-3-yl)-1H-benzoimidazole]
20 | 0.0123 µM |  |  | C=CCN(CC=C)CCCOc1ccc2cc(-c3n[nH]c4ccsc34)[nH]c2c1 [Example 13, Diallyl-{3-[2-(1H-thieno[3,2-c]pyrazol-3-yl)-1H-indol-6-yloxy]-propyl}-amine]
21 | 0.00326 µM |  |  | CN(CCO)CCCOc1ccc2cc(-c3n[nH]c4ccsc34)[nH]c2c1 [Example 15, 2-(Methyl-{3-[2-(1H-thieno[3,2-c]pyrazol-3-yl)-1H-indol-6-yloxy]-propyl}-amino)-ethanol]
22 | 0.00294 µM | 0.289 µM |  | CCN1CCN(CCCOc2ccc3cc(-c4n[nH]c5ccsc45)[nH]c3c2)CC1 [Example 10, 6-[3-(4-Ethyl-piperazin-1-yl)-propoxy]-2-(1H-thieno[3,2-c]pyrazol-3-yl)-1H-indole]
23 |  |  | 110 to 112 °C | OC(c1ccc2cc(-c3n[nH]c4ccsc34)[nH]c2c1)(C1CC1)C1CC1
24 | 0.086 µM | 2.9 µM |  | COc1ccc2nc(-c3n[nH]c4c3sc3ccccc34)[nH]c2c1 [Example 3, 3-(6-Methoxy-1H-benzimidazol-2-yl)-1H-benzo[4,5]thieno[3,2-c-]pyrazole]
